# Laboratory results: patent US20230123334A1, “AMINO LIPID COMPOUND, PREPARATION METHOD THEREFOR, AND APPLICATION THEREOF” (SHENZHEN SHENXIN BIOTECHNOLOGY CO., LTD., priority 2020, published 2023)
# Test system: HEK293 cells
# Assay: Preliminary screening as DNA vectors, GFP transfection of HEK293 cells
# Type: cell-based
# Conditions: amino lipid/DOPE liposome with 75 ng plasmid DNA (psin-EGFP-IRES-Puro); number of GFP-expressing cells divided by total nuclei (Hoechst)
# Outline: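 HEK293 cells in DMEM/10% FBS transfected with 75 ng EGFP plasmid per well complexed with amino lipid/DOPE liposomes in pH 5.6 sodium acetate. Hoechst nuclear stain added 20-24 h post-transfection, then cells cultured another 20-24 h. Confocal imaging gives GFP-positive cells as % of total nuclei.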
row,Compound,Absolute DNA transfection efficiency in HEK293 cells
1,CCCCCCCCCCCCCCCCNc1nc(NCCN2CCCCC2)nc(SCCCCCCCCCCCCCCC)n1 [S15N16 D4],0.4%
2,CCCCCCCCCCCCCCCCNc1nc(NCCN2CCN(C)CC2)nc(SCCCCCCCCCCCCCCC)n1 [S15N16 D5],0.2%
3,CCCCCCCCCCCCCCCCNc1nc(NCCCN(C)C)nc(SCCCCCCCCCCCCCCC)n1 [S15N16 D6],0.0%
4,CCCCCCCCCCCCCCCCNc1nc(NCCN(CC)CC)nc(SCCCCCCCCCCCCCCC)n1 [S15N16 D7],0.4%
5,CCCCCCCCCCCCCCCCNc1nc(NCCCN2CCOCC2)nc(SCCCCCCCCCCCCCCC)n1 [S15N16 D8],0.0%
6,CCCCCCCCCCCCCCCCNc1nc(NCCCN2CCN(C)CC2)nc(SCCCCCCCCCCCCCCC)n1 [S15N16 D9],0.2%
7,CCCCCCCCCCCCCCCCNc1nc(NCC2CCN(C)CC2)nc(SCCCCCCCCCCCCCCC)n1 [S15N16 D10],0.3%
8,CCCCCCCCCCCCCCCCCCNc1nc(NCCN(C)C)nc(SCCCCCCCCCCCCCCC)n1 [S15N18 D1],0.6%
9,CCCCCCCCCCCCCCCCCCNc1nc(NCCN2CCOCC2)nc(SCCCCCCCCCCCCCCC)n1 [S15N18 D2],0.0%
10,CCCCCCCCCCCCCCCCCCNc1nc(NCCN2CCCC2)nc(SCCCCCCCCCCCCCCC)n1 [S15N18 D3],0.7%
11,CCCCCCCCCCCCCCCCCCNc1nc(NCCN2CCCCC2)nc(SCCCCCCCCCCCCCCC)n1 [S15N18 D4],0.4%
12,CCCCCCCCCCCCCCCCCCNc1nc(NCCN2CCN(C)CC2)nc(SCCCCCCCCCCCCCCC)n1 [S15N18 D5],0.3%
13,CCCCCCCCCCCCCCCCCCNc1nc(NCCCN(C)C)nc(SCCCCCCCCCCCCCCC)n1 [S15N18 D6],0.3%
14,CCCCCCCCCCCCCCCCCCNc1nc(NCCN(CC)CC)nc(SCCCCCCCCCCCCCCC)n1 [S15N18 D7],0.9%
15,CCCCCCCCCCCCCCCCCCNc1nc(NCCCN2CCOCC2)nc(SCCCCCCCCCCCCCCC)n1 [S15N18 D8],0.3%
16,CCCCCCCCCCCCCCCCCCNc1nc(NCCCN2CCN(C)CC2)nc(SCCCCCCCCCCCCCCC)n1 [S15N18 D9],0.4%
17,CCCCCCCCCCCCCCCCCCNc1nc(NCC2CCN(C)CC2)nc(SCCCCCCCCCCCCCCC)n1 [S15N18 D10],1.2%
18,CCCCCCCCCCCCCCCSc1nc(NCCN(C)C)nc(N(CCCCCCCCCCCC)CCCCCCCCCCCC)n1 [S15^2N12 D1],0.0%
19,CCCCCCCCCCCCCCCSc1nc(NCCN2CCOCC2)nc(N(CCCCCCCCCCCC)CCCCCCCCCCCC)n1 [S15^2N12 D2],0.0%
20,CCCCCCCCCCCCCCCSc1nc(NCCN2CCCC2)nc(N(CCCCCCCCCCCC)CCCCCCCCCCCC)n1 [S15^2N12 D3],0.1%
21,CCCCCCCCCCCCCCCSc1nc(NCCN2CCCCC2)nc(N(CCCCCCCCCCCC)CCCCCCCCCCCC)n1 [S15^2N12 D4],0.0%
22,CCCCCCCCCCCCCCCSc1nc(NCCN2CCN(C)CC2)nc(N(CCCCCCCCCCCC)CCCCCCCCCCCC)n1 [S15^2N12 D5],0.7%
23,CCCCCCCCCCCCCCCSc1nc(NCCCN(C)C)nc(N(CCCCCCCCCCCC)CCCCCCCCCCCC)n1 [S15^2N12 D6],0.0%

row,Compound,Absolute DNA transfection efficiency in HEK293 cells
1,CCCCCCCCCCCCCCCSc1nc(NCCN(CC)CC)nc(N(CCCCCCCCCCCC)CCCCCCCCCCCC)n1 [S15^2N12 D7],0.2%
2,CCCCCCCCCCCCCCCSc1nc(NCCCN2CCOCC2)nc(N(CCCCCCCCCCCC)CCCCCCCCCCCC)n1 [S15^2N12 D8],0.0%
3,CCCCCCCCCCCCCCCSc1nc(NCCCN2CCN(C)CC2)nc(N(CCCCCCCCCCCC)CCCCCCCCCCCC)n1 [S15^2N12 D9],0.9%
4,CCCCCCCCCCCCCCCSc1nc(NCC2CCN(C)CC2)nc(N(CCCCCCCCCCCC)CCCCCCCCCCCC)n1 [S15^2N12 D10],1.0%
5,CCCCCCCCCCCCCCCCSc1nc(NCCCCCC)nc(NCCN(C)C)n1 [S16N6 D1],8.0%
6,CCCCCCCCCCCCCCCCSc1nc(NCCCCCC)nc(NCCN2CCOCC2)n1 [S16N6 D2],16.5%
7,CCCCCCCCCCCCCCCCSc1nc(NCCCCCC)nc(NCCN2CCCC2)n1 [S16N6 D3],35.3%
8,CCCCCCCCCCCCCCCCSc1nc(NCCCCCC)nc(NCCN2CCCCC2)n1 [S16N6 D4],6.0%
9,CCCCCCCCCCCCCCCCSc1nc(NCCCCCC)nc(NCCN2CCN(C)CC2)n1 [S16N6 D5],18.7%
10,CCCCCCCCCCCCCCCCSc1nc(NCCCCCC)nc(NCCCN(C)C)n1 [S16N6 D6],24.1%
11,CCCCCCCCCCCCCCCCSc1nc(NCCCCCC)nc(NCCN(CC)CC)n1 [S16N6 D7],5.8%
12,CCCCCCCCCCCCCCCCSc1nc(NCCCCCC)nc(NCCCN2CCOCC2)n1 [S16N6 D8],11.6%
13,CCCCCCCCCCCCCCCCSc1nc(NCCCCCC)nc(NCCCN2CCN(C)CC2)n1 [S16N6 D9],9.6%
14,CCCCCCCCCCCCCCCCSc1nc(NCCCCCC)nc(NCC2CCN(C)CC2)n1 [S16N6 D10],14.5%
15,CCCCCCCCCCCCCCCCSc1nc(NCCCCCCC)nc(NCCN(C)C)n1 [S16N7 D1],13.0%
16,CCCCCCCCCCCCCCCCSc1nc(NCCCCCCC)nc(NCCN2CCOCC2)n1 [S16N7 D2],16.6%
17,CCCCCCCCCCCCCCCCSc1nc(NCCCCCCC)nc(NCCN2CCCC2)n1 [S16N7 D3],8.9%
18,CCCCCCCCCCCCCCCCSc1nc(NCCCCCCC)nc(NCCN2CCCCC2)n1 [S16N7 D4],6.9%
19,CCCCCCCCCCCCCCCCSc1nc(NCCCCCCC)nc(NCCN2CCN(C)CC2)n1 [S16N7 D5],10.1%
20,CCCCCCCCCCCCCCCCSc1nc(NCCCCCCC)nc(NCCCN(C)C)n1 [S16N7 D6],12.9%
21,CCCCCCCCCCCCCCCCSc1nc(NCCCCCCC)nc(NCCN(CC)CC)n1 [S16N7 D7],7.3%
22,CCCCCCCCCCCCCCCCSc1nc(NCCCCCCC)nc(NCCCN2CCOCC2)n1 [S16N7 D8],12.0%
23,CCCCCCCCCCCCCCCCSc1nc(NCCCCCCC)nc(NCCCN2CCN(C)CC2)n1 [S16N7 D9],9.8%

row,Compound,Absolute DNA transfection efficiency in HEK293 cells
1,CCCCCCCCCCCCCCCCSc1nc(NCCCCCCC)nc(NCC2CCN(C)CC2)n1 [S16N7 D10],3.4%
2,CCCCCCCCCCCCCCCCSc1nc(NCCCCCCCC)nc(NCCN(C)C)n1 [S16N8 D1],10.0%
3,CCCCCCCCCCCCCCCCSc1nc(NCCCCCCCC)nc(NCCN2CCOCC2)n1 [S16N8 D2],14.6%
4,CCCCCCCCCCCCCCCCSc1nc(NCCCCCCCC)nc(NCCN2CCCC2)n1 [S16N8 D3],13.2%
5,CCCCCCCCCCCCCCCCSc1nc(NCCCCCCCC)nc(NCCN2CCCCC2)n1 [S16N8 D4],8.4%
6,CCCCCCCCCCCCCCCCSc1nc(NCCCCCCCC)nc(NCCN2CCN(C)CC2)n1 [S16N8 D5],6.7%
7,CCCCCCCCCCCCCCCCSc1nc(NCCCCCCCC)nc(NCCCN(C)C)n1 [S16N8 D6],11.1%
8,CCCCCCCCCCCCCCCCSc1nc(NCCCCCCCC)nc(NCCN(CC)CC)n1 [S16N8 D7],4.6%
9,CCCCCCCCCCCCCCCCSc1nc(NCCCCCCCC)nc(NCCCN2CCOCC2)n1 [S16N8 D8],16.5%
10,CCCCCCCCCCCCCCCCSc1nc(NCCCCCCCC)nc(NCCCN2CCN(C)CC2)n1 [S16N8 D9],10.9%
11,CCCCCCCCCCCCCCCCSc1nc(NCCCCCCCCC)nc(NCCN(C)C)n1 [S16N9 D1],7.5%
12,CCCCCCCCCCCCCCCCSc1nc(NCCCCCCCCC)nc(NCCN2CCOCC2)n1 [S16N9 D2],7.4%
13,CCCCCCCCCCCCCCCCSc1nc(NCCCCCCCCC)nc(NCCN2CCCC2)n1 [S16N9 D3],13.7%
14,CCCCCCCCCCCCCCCCSc1nc(NCCCCCCCCC)nc(NCCN2CCCCC2)n1 [S16N9 D4],9.1%
15,CCCCCCCCCCCCCCCCSc1nc(NCCCCCCCCC)nc(NCCN2CCN(C)CC2)n1 [S16N9 D5],7.8%
16,CCCCCCCCCCCCCCCCSc1nc(NCCCCCCCCC)nc(NCCCN(C)C)n1 [S16N9 D6],11.7%
17,CCCCCCCCCCCCCCCCSc1nc(NCCCCCCCCC)nc(NCCN(CC)CC)n1 [S16N9 D7],5.3%
18,CCCCCCCCCCCCCCCCSc1nc(NCCCCCCCCC)nc(NCCCN2CCOCC2)n1 [S16N9 D8],6.7%
19,CCCCCCCCCCCCCCCCSc1nc(NCCCCCCCCC)nc(NCCCN2CCN(C)CC2)n1 [S16N9 D9],9.5%
20,CCCCCCCCCCCCCCCCSc1nc(NCCCCCCCCC)nc(NCC2CCN(C)CC2)n1 [S16N9 D10],6.9%
21,CCCCCCCCCCCCCCCCSc1nc(NCCCCCCCCCCC)nc(NCCN(C)C)n1 [S16N11 D1],17.2%
22,CCCCCCCCCCCCCCCCSc1nc(NCCCCCCCCCCC)nc(NCCN2CCOCC2)n1 [S16N11 D2],9.6%
